Results taken from patent publication US6455540B1, “Methods of use of quinolone compounds against anaerobic pathogenic bacteria” (priority 1999, dated 2002).
Values after ≈ are worked out from the molar mass of the structure shown.

Legend:
Bilophila wadsworthia = assay: Agar dilution MIC; format: cell-based; settings: Bilophila wadsworthia
[1] = tested on: Prevotella heparinolytica; assay: Agar dilution MIC; format: cell-based
Anaerobiospirillum spp. = assay: Agar dilution MIC; format: cell-based
Porphyromonas gingivalis = assay: Agar dilution MIC; format: cell-based; settings: Porphyromonas gingivalis
[2] = tested on: Prevotella buccae-oris group; assay: Agar dilution MIC; format: cell-based
Porphyromonas macaccae = assay: Agar dilution MIC; format: cell-based
[3] = tested on: Anaerobiospirillum thomasii; assay: Agar dilution MIC; format: cell-based
Clostridium inocuum = assay: Agar dilution MIC; format: cell-based, Clostridium innocuum
Clostridium ramosum = assay: Agar dilution MIC; format: cell-based
Prevotella intermedia = assay: Agar dilution MIC; format: cell-based
[4] = tested on: Actinomyces odontolyticus; assay: Agar dilution MIC; format: cell-based
Actinomyces israelii = assay: Agar dilution MIC; format: cell-based
Gram-positive anaerobes = assay: Agar dilution activity against Gram-positive anaerobes; format: cell-based; settings: for activity compared with trovafloxacin: Gram-positive strains
[5] = tested on: Peptostreptococcus prevotii; assay: Agar dilution MIC; format: cell-based
Bacteroides tectum = assay: Agar dilution MIC; format: cell-based
[6] = tested on: Fusobacterium spp group 1; assay: Agar dilution MIC; format: cell-based
Prevotella bivia = assay: Agar dilution MIC; format: cell-based
Fusobacterium naviforme = assay: Agar dilution MIC; format: cell-based; settings: read-out: concentration to which strains were susceptible (MIC)
[7] = read-out: Minimal Inhibitory Concentration 50% (MIC50)

CO/N=C1\CN(c2nc3c(cc2F)c(=O)c(C(=O)O)cn3C2CC2)CC1CN (racemic) [Gemifloxacin, (R,S)-7-(3-aminomethyl-4-methoxyiminopyrrolidin-1-yl)-1-cyclopropyl-6-fluoro-4-oxo-1,4-dihydro-1,8-naphthyridine-3-carboxylic acid]
MIC90 (Bilophila wadsworthia; 16 isolates, agar supplemented with pyruvate, read-out: Minimal Inhibitory Concentration 90% (MIC90)): ≥ 4 µg/mL | MIC50 (Bilophila wadsworthia; [7]): 0.25 µg/mL (≈ 0.642 µM) | Minimal Inhibitory Concentration 90% (MIC90) ([1]; 16 isolates): 0.5 µg/mL | Minimal Inhibitory Concentration Range ([1]; 16 isolates): 0.25 to 0.5 µg/mL | Minimal Inhibitory Concentration 90% (MIC90) ([1]; 16 isolates, listed as gemifloxacin): ≤ 2 µg/mL | MIC50 ([1]; Prevotella heparinolytica, read-out: Minimal Inhibitory Concentration 50% (MIC50)): 0.5 µg/mL (≈ 1.28 µM) | MIC90 (Anaerobiospirillum spp.): ≤ 2 µg/mL | MIC50 (Porphyromonas gingivalis; [7]): 0.06 µg/mL (≈ 0.154 µM) | MIC90 (Porphyromonas gingivalis; 13 isolates, read-out: Minimal Inhibitory Concentration 90% (MIC90)): 0.125 µg/mL (≈ 0.321 µM) | Minimal Inhibitory Concentration 90% (MIC90) ([2]; 22 isolates): 2 µg/mL | Minimal Inhibitory Concentration Range ([2]; 22 isolates): 0.5 to 8 µg/mL | MIC90 ([2]; Prevotella, 22 isolates, read-out: Minimal Inhibitory Concentration 90% (MIC90)): ≤ 2 µg/mL | MIC50 ([2]; Prevotella, read-out: Minimal Inhibitory Concentration 50% (MIC50)): 2 µg/mL (≈ 5.14 µM) | Minimal Inhibitory Concentration Range (Porphyromonas macaccae; 13 isolates): 0.03 to 0.125 µg/mL | MIC50 (Porphyromonas macaccae; Porphyromonas, read-out: Minimal Inhibitory Concentration 50% (MIC50)): 0.06 µg/mL (≈ 0.154 µM) | MIC90 (Porphyromonas macaccae; Porphyromonas, 13 isolates, read-out: Minimal Inhibitory Concentration 90% (MIC90)): 0.125 µg/mL (≈ 0.321 µM) | Minimal Inhibitory Concentration Range ([3]; 13 isolates): 0.06 to 0.25 µg/mL | MIC50 ([3]; Anaerobiospirillum thomasii, read-out: Minimal Inhibitory Concentration 50% (MIC50)): 0.125 µg/mL (≈ 0.321 µM) | MIC90 ([3]; Anaerobiospirillum thomasii, 13 isolates, read-out: Minimal Inhibitory Concentration 90% (MIC90)): 0.125 µg/mL (≈ 0.321 µM) | susceptibility to gemifloxacin (Clostridium inocuum): relatively susceptible | Minimal Inhibitory Concentration 90% (MIC90) (Clostridium inocuum; 11 isolates): 2 µg/mL | MIC90 (Clostridium inocuum; Clostridium, 11 isolates, read-out: Minimal Inhibitory Concentration 90% (MIC90)): ≤ 2 µg/mL | MIC50 (Clostridium inocuum; Clostridium, read-out: Minimal Inhibitory Concentration 50% (MIC50)): 0.25 µg/mL (≈ 0.642 µM) | Minimal Inhibitory Concentration Range (Clostridium ramosum; 10 isolates): 0.125 to 2 µg/mL | MIC50 (Clostridium ramosum; Thomasclavelia ramosa, read-out: Minimal Inhibitory Concentration 50% (MIC50)): 0.25 µg/mL (≈ 0.642 µM) | MIC90 (Clostridium ramosum; Thomasclavelia ramosa, 10 isolates, read-out: Minimal Inhibitory Concentration 90% (MIC90)): 1 µg/mL (≈ 2.57 µM) | Minimal Inhibitory Concentration 90% (MIC90) (Prevotella intermedia; 11 isolates): 0.5 µg/mL | Minimal Inhibitory Concentration Range (Prevotella intermedia; 11 isolates): 0.06 to 1 µg/mL | Minimal Inhibitory Concentration 90% (MIC90) (Prevotella intermedia; 11 isolates, listed as gemifloxacin): ≤ 2 µg/mL | MIC50 (Prevotella intermedia; Prevotella intermedia, read-out: Minimal Inhibitory Concentration 50% (MIC50)): 0.25 µg/mL (≈ 0.642 µM) | Minimal Inhibitory Concentration 90% (MIC90) ([4]; 10 isolates): 2 µg/mL | Minimal Inhibitory Concentration Range ([4]; 10 isolates): 1 to 2 µg/mL | MIC90 ([4]; Schaalia odontolytica, 10 isolates, read-out: Minimal Inhibitory Concentration 90% (MIC90)): ≤ 2 µg/mL | MIC50 ([4]; Schaalia odontolytica, read-out: Minimal Inhibitory Concentration 50% (MIC50)): 2 µg/mL (≈ 5.14 µM) | Minimal Inhibitory Concentration Range (Actinomyces israelii; 6 isolates): 0.5 to 2 µg/mL | MIC50 (Actinomyces israelii; Actinomyces israelii, read-out: Minimal Inhibitory Concentration 50% (MIC50)): 1 µg/mL (≈ 2.57 µM) | MIC90 (Actinomyces israelii; Actinomyces israelii, stated in text only): ≤ 2 µg/mL | activity (Gram-positive anaerobes): good activity | activity compared with trovafloxacin (Gram-positive anaerobes): generally more active than trovafloxacin against Gram-positive strains by one to two dilutions | activity compared with trovafloxacin (Gram-positive anaerobes; listed as gemifloxacin): compared favorably with trovafloxacin | Minimal Inhibitory Concentration Range ([5]; 9 isolates): 0.06 to 0.25 µg/mL | MIC50 ([5]; Anaerococcus prevotii, read-out: Minimal Inhibitory Concentration 50% (MIC50)): 0.125 µg/mL (≈ 0.321 µM) | Minimal Inhibitory Concentration 90% (MIC90) (Bacteroides tectum; 22 isolates): 0.25 µg/mL | Minimal Inhibitory Concentration Range (Bacteroides tectum; 22 isolates): 0.06 to 8 µg/mL | Minimal Inhibitory Concentration 90% (MIC90) (Bacteroides tectum; 22 isolates, listed as gemifloxacin): ≤ 2 µg/mL | MIC50 (Bacteroides tectum; Bacteroides pyogenes, read-out: Minimal Inhibitory Concentration 50% (MIC50)): 0.125 µg/mL (≈ 0.321 µM) | Minimal Inhibitory Concentration Range ([6]; 19 isolates): 0.06 to 8 µg/mL | MIC50 ([6]; Fusobacterium, GROUP1, read-out: Minimal Inhibitory Concentration 50% (MIC50)): 0.25 µg/mL (≈ 0.642 µM) | MIC90 ([6]; Fusobacterium, GROUP1, 19 isolates, read-out: Minimal Inhibitory Concentration 90% (MIC90)): 8 µg/mL (≈ 20.5 µM) | Minimal Inhibitory Concentration 90% (MIC90) (Prevotella bivia; 21 isolates): 8 µg/mL | MIC90 (Prevotella bivia; Prevotella bivia, 21 isolates, read-out: Minimal Inhibitory Concentration 90% (MIC90)): ≥ 4 µg/mL | MIC50 (Prevotella bivia; Prevotella bivia, read-out: Minimal Inhibitory Concentration 50% (MIC50)): 8 µg/mL (≈ 20.5 µM) | MIC (Fusobacterium naviforme): ≤ 2 µg/mL
